{"source": "patent US20250154145A1", "about": "“OXER1 ANTAGONISTS AND USES THEREOF” (Fairhaven Pharmaceuticals Ins., priority 2021, published 2025)", "data": [{"system": "neutrophils", "assay": "Neutrophil calcium flux assay (5-OXO-ETE-stimulated, Indo-1 fluorescence)", "format": "cell-based", "details": "5-OXO-ETE-stimulated calcium flux", "how_it_was_run": "(§1)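 Indo-1-loaded neutrophils (5×10^6 cells/ml, 30 min at 37 °C) in HBSS with Ca/Mg and HEPES, pre-incubated 5 min with antagonist or buffer. Stimulated with 5-OXO-ETE added at 200 nM (4× stock); fluorescence (ex 331/em 410 nm) read every 5 s for 30 cycles, expressed as net fluorescence.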", "units": {"IC50": "nM"}, "values": [{"smiles": "CC(CC(=O)O)CC(=O)n1c(CCCCCCc2cccc(Cl)c2)cc2ncc(Cl)cc21", "note": "(centres unmarked) [Compound I-305]", "IC50": "< 100"}]}, {"system": "neutrophils", "assay": "Neutrophil calcium flux assay (5-OXO-ETE-stimulated, Indo-1 fluorescence)", "format": "cell-based", "details": "Neutrophil, 5-OXO-ETE-stimulated calcium flux", "how_it_was_run": "as §1", "units": {"IC50": "nM"}, "values": [{"smiles": "COc1cccc(C(O)CCCCCc2c(C(=O)CC(C)CC(=O)O)c3cc(C#N)cnc3n2C)c1", "note": "(centres unmarked) [Compound I-302]", "IC50": "< 100"}, {"smiles": "Cn1c(CCCCCCc2cccc(Cl)c2)c(CN2CC[C@H](C(=O)O)C2)c2cc(Cl)ccc21", "note": "[Compound I-303]", "IC50": "> 300"}, {"smiles": "CC(CC(=O)O)CC(=O)c1c(CCCCCCC=C=CC(F)(F)F)n(C)c2ccc(Cl)cc12", "note": "(centres unmarked) [Compound I-304]", "IC50": "> 300"}, {"smiles": "CC(CC(=O)O)CC(=O)c1c(CCCCCC(O)c2ccc(Cl)cc2)n(C)c2ncc(C#N)cc12", "note": "(centres unmarked) [Compound I-310]", "IC50": "100 to 300"}, {"smiles": "CC(CC(=O)O)CC(=O)c1c(CCCCCC(O)c2ccc(F)cc2)n(C)c2ncc(C#N)cc12", "note": "(centres unmarked) [Compound I-311]", "IC50": "> 300"}, {"smiles": "CC(=O)Nc1cccc(C(O)CCCCCc2c(C(=O)CC(C)CC(=O)O)c3cc(C#N)cnc3n2C)c1", "note": "(centres unmarked) [Compound I-312]", "IC50": "> 300"}, {"smiles": "CC(=O)N(C)c1cccc(C(O)CCCCCc2c(C(=O)CC(C)CC(=O)O)c3cc(C#N)cnc3n2C)c1", "note": "(centres unmarked) [Compound I-313]", "IC50": "> 300"}, {"smiles": "CC(CC(=O)O)CC(=O)c1c(CCCCCC(O)c2cccc(C(=O)N(C)C)c2)n(C)c2ncc(C#N)cc12", "note": "(centres unmarked) [Compound I-314]", "IC50": "< 100"}, {"smiles": "C[C@H](CC(=O)O)CC(=O)c1c(CCCCCCC#CC2CC(F)(F)C2)n(C)c2ccc(Cl)cc12", "note": "[Compound I-319]", "IC50": "< 100"}, {"smiles": "C[C@H](CC(=O)O)CC(=O)c1c(CCCCCCC#CC2CC(F)(F)C2)n(C)c2ncc(Cl)cc12", "note": "[Compound I-320]", "IC50": "< 100"}, {"smiles": "CC(CC(=O)O)CC(=O)c1c(CCCCCCC#CC2COC2)n(C)c2ccc(Cl)cc12", "note": "(centres unmarked) [Compound I-321]", "IC50": "< 100"}, {"smiles": "CC(CC(=O)O)CC(=O)c1c(CCCCCCC#CC2CC(F)(F)C2)n(C)c2ncc(C#N)cc12", "note": "(centres unmarked) [Compound I-322]", "IC50": "< 100"}, {"smiles": "C[C@H](CC(=O)O)CC(=O)c1c(CCCCCCC#CC2CC(F)(F)C2)[nH]c2ccc(Cl)cc12", "note": "[Compound I-323]", "IC50": "< 100"}, {"smiles": "C[C@H](CC(=O)O)CC(=O)c1c(CCCCOCC#CC2CC(F)(F)C2)n(C)c2ccc(Cl)cc12", "note": "[Compound I-324]", "IC50": "< 100"}, {"smiles": "C[C@H](CC(=O)O)CC(=O)c1c(CCCOCCC#CC2CC(F)(F)C2)n(C)c2ccc(Cl)cc12", "note": "[Compound I-325]", "IC50": "< 100"}, {"smiles": "C[C@H](CC(=O)O)CC(=O)c1c(CCOCCCC#CC2CC(F)(F)C2)n(C)c2ccc(Cl)cc12", "note": "[Compound I-326]", "IC50": "< 100"}, {"smiles": "C[C@H](CC(=O)O)CC(=O)c1c(COCCCCC#CC2CC(F)(F)C2)n(C)c2ccc(Cl)cc12", "note": "[Compound I-327]", "IC50": "< 100"}, {"smiles": "C[C@H](CC(=O)O)CC(=O)c1c(CCCCCCC#CC2CC(F)(F)C2)n(C)c2ncc(C#N)cc12", "note": "[Compound I-328]", "IC50": "< 100"}, {"smiles": "C[C@@H](CC(=O)O)CC(=O)c1c(CCCCCCC#CC2CC(F)(F)C2)n(C)c2ncc(C#N)cc12", "note": "[Compound I-329]", "IC50": "> 300"}, {"smiles": "C[C@H](CC(=O)O)CC(=O)c1c(CCCCCC#CC2CC(F)(F)C2)n(C)c2ccc(Cl)cc12", "note": "[Compound I-330]", "IC50": "> 300"}, {"smiles": "C[C@H](CC(=O)O)CC(=O)c1c(CCCCCCCC#CC2CC(F)(F)C2)n(C)c2ccc(Cl)cc12", "note": "[Compound I-331]", "IC50": "< 100"}, {"smiles": "C[C@H](CC(=O)O)CC(=O)c1c(CCCCCCC#CC2COC2)n(C)c2ccc(Cl)cc12", "note": "[Compound I-332]", "IC50": "< 100"}, {"smiles": "C[C@@H](CC(=O)O)CC(=O)c1c(CCCCCCC#CC2COC2)n(C)c2ccc(Cl)cc12", "note": "[Compound I-333]", "IC50": "> 300"}, {"smiles": "CC(CC(=O)O)CC(=O)c1c(CCCCCCCC#CC2CC(F)(F)C2)n(C)c2ncc(Cl)cc12", "note": "(centres unmarked) [Compound I-334]", "IC50": "> 300"}, {"smiles": "C[C@H](CC(=O)O)CC(=O)c1c(CCCCCCCC#CC2CC(F)(F)C2)n(C)c2ncc(C#N)cc12", "note": "[Compound I-335]", "IC50": "< 100"}, {"smiles": "C[C@@H](CC(=O)O)CC(=O)c1c(CCCCCCCC#CC2CC(F)(F)C2)n(C)c2ncc(C#N)cc12", "note": "[Compound I-336]", "IC50": "> 300"}, {"smiles": "C[C@H](CC(=O)O)CC(=O)c1c(CCCCCOCC#CC2CC(F)(F)C2)n(C)c2ccc(Cl)cc12", "note": "[Compound I-337]", "IC50": "< 100"}, {"smiles": "Cn1c(CCCCCCc2cccc(Cl)c2)c(C(=O)N2CC[C@H](C(=O)O)C2)c2cc(C#N)cnc21", "note": "[Compound I-338]", "IC50": "< 100"}, {"smiles": "Cn1c(CCCCCCC#CC2CC(F)(F)C2)c(C(=O)N2CC[C@H](C(=O)O)C2)c2cc(Cl)ccc21", "note": "[Compound I-339]", "IC50": "< 100"}, {"smiles": "Cn1c(CCCCCCC#CC2CC(F)(F)C2)c(C(=O)N2CC[C@H](C(=O)O)C2)c2cc(C#N)cnc21", "note": "[Compound I-340]", "IC50": "< 100"}, {"smiles": "Cn1c(CCCCCCC#CC2CC(F)(F)C2)c(C(=O)N2CC[C@@H](C(=O)O)C2)c2cc(C#N)cnc21", "note": "[Compound I-341]", "IC50": "> 300"}, {"smiles": "Cn1c(CCCCCCCC#CC2CC(F)(F)C2)c(C(=O)N2CC[C@H](C(=O)O)C2)c2cc(C#N)cnc21", "note": "[Compound I-342]", "IC50": "> 300"}, {"smiles": "Cn1c(CCCCCC#CC2CC(F)(F)C2)c(C(=O)N2CC[C@H](C(=O)O)C2)c2cc(C#N)cnc21", "note": "[Compound I-343]", "IC50": "> 300"}, {"smiles": "Cn1c(CCCCCCC#CC2CC(F)(F)C2)c(C(=O)N2CC[C@](F)(C(=O)O)C2)c2cc(C#N)cnc21", "note": "[Compound I-344]", "IC50": "> 300"}, {"smiles": "Cn1c(CCCCCCC#CC2CC(F)(F)C2)c(C(=O)N2CC[C@H](C(=O)O)C2)c2cc(Br)cnc21", "note": "[Compound I-345]", "IC50": "100 to 300"}, {"smiles": "C[C@@H]1[C@@H](C(=O)O)CCN1C(=O)c1c(CCCCCCC#CC2CC(F)(F)C2)n(C)c2ncc(C#N)cc12", "note": "[Compound I-346]", "IC50": "< 100"}, {"smiles": "C[C@@H]1CN(C(=O)c2c(CCCCCCC#CC3CC(F)(F)C3)n(C)c3ncc(C#N)cc23)C[C@H]1C(=O)O", "note": "[Compound I-347]", "IC50": "> 300"}, {"smiles": "Cn1c(CCCCCCC#CC2CC(F)(F)C2)c(C(=O)O)c2cc(Br)cnc21", "note": "[Compound I-348]", "IC50": "> 300"}, {"smiles": "Cn1c(COCCCCC#CC2CC(F)(F)C2)c(C(=O)N2CC[C@H](C(=O)O)C2)c2cc(Cl)ccc21", "note": "[Compound I-349]", "IC50": "> 300"}, {"smiles": "Cn1c(CCCCCCCC#CC2CC(F)(F)C2)c(C(=O)N2CC[C@H](C(=O)O)C2)c2cc(Br)cnc21", "note": "[Compound I-350]", "IC50": "> 300"}, {"smiles": "COC(=O)[C@H]1CCN(C(=O)c2c(CCCCCCC#CC3CC(F)(F)C3)n(C)c3ncc(C#N)cc23)[C@@H]1C", "note": "[Compound I-351]", "IC50": "> 300"}, {"smiles": "C[C@@H](CC(=O)c1c(CCCCCCC#CC2CC(F)(F)C2)n(C)c2ccc(Cl)cc12)Cc1nnn[nH]1", "note": "[Compound I-352]", "IC50": "< 100"}, {"smiles": "Cn1c(CCCCCCC#CC2CC(F)(F)C2)c(C(=O)N2CC[C@H](c3nnn[nH]3)C2)c2cc(Cl)ccc21", "note": "[Compound I-353]", "IC50": "< 100"}, {"smiles": "Cn1c(CCCCCCC#CC2CC(F)(F)C2)c(C(=O)N2CC[C@H](c3nnn[nH]3)C2)c2cc(C#N)cnc21", "note": "[Compound I-354]", "IC50": "< 100"}, {"smiles": "C[C@@H](CC(=O)c1c(CCCCOCc2cccc(Cl)c2)n(C)c2ncc(Cl)cc12)Cc1nnn[nH]1", "note": "[Compound I-355]", "IC50": "< 100"}, {"smiles": "C[C@H](CC(N)=O)CC(=O)c1c(CCCCOCc2cccc(Cl)c2)n(C)c2ncc(Cl)cc12", "note": "[Compound I-356]", "IC50": "> 300"}, {"smiles": "C[C@H](CC#N)CC(=O)c1c(CCCCOCc2cccc(Cl)c2)n(C)c2ncc(Cl)cc12", "note": "[Compound I-357]", "IC50": "> 300"}, {"smiles": "Cn1c(CCCCCCCC#CC2CC(F)(F)C2)c(C(=O)N2CC[C@H](c3nnn[nH]3)C2)c2cc(C#N)cnc21", "note": "[Compound I-358]", "IC50": "> 300"}, {"smiles": "C[C@@H](CC(=O)c1c(CCCCOCc2ccccc2)n(C)c2ncc(C#N)cc12)Cc1nnn[nH]1", "note": "[Compound I-359]", "IC50": "< 100"}]}]}
